Measurements taken from patent US20240309014A1, “MACROCYCLIC COMPOUNDS AND USES THEREOF” (President and Fellows of Harvard College, priority 2017, published 2024).

Assays:
[1] = tested on: HCCl806 subcutaneous xenograft; experiment: Antitumor activity against HCC1806 subcutaneous xenograft as monotherapy; type: in vivo, nude mice; settings: 0.18 mg/kg i.v., Q7Dx2
Description: A human breast cancer cell line HCCl806, which had been cultured in an RPMI-1640 medium containing 10% FBS, and penicillin and streptomycin, was adjusted to a concentration of 1×10^8 cells/mL with PBS to prepare a cell suspension, and the suspension was mixed with Matrigel™ (BD Bioscience, #366237) in a ratio of 1:1 to prepare a cell suspension in a concentration of 5×10^7 cell/mL. The cell suspension was inoculated in a volume of 100 μL into a subcutaneous part of a right flank of nude mice, 5 weeks of ages (CAnN.Cg-Foxnlnu/CrlCrlj, female, Charles River Laboratories Japan, Inc.). Twelve days after cell inoculation, the shortest diameter and the longest diameter of a tumor in each mouse were measured by using an electronic digital caliper (Digimatic™ caliper, Mitutoyo Corporation), so as to calculate the volume of the tumor in accordance with the following calculation formulae: […]
On the basis of the volumes of tumors obtained on the first day of administration, the mice were grouped such that averages of the tumor volumes were substantially equal among the groups. The experiment was conducted on groups each consisting of 6 mice. Test compound was dissolved in saline and intravenously administered at 0.18 mg/kg once a week for 2 weeks (Q7Dx2 schedule).

[2] = tested on: microtubule dynamics in U2OS-EB3-AG osteosarcoma cell line; experiment: Cell-based microtubule dynamics assay; settings: 0.5 nM, around 60 minutes after addition
Description: A cell-based microtubule (MT) dynamics assay was conducted with the U2OS-EB3-AG osteosarcoma cell line, in which the fusion protein of EB3 (a microtubule plus end binding protein) and Azami-Green (EB3-AG) was stably expressed. U2OS-EB3-AG cells were culture in RPMI-1640 medium containing 10% FBS, and penicillin-streptomycin, at 37° C. in a humidified 5% C02 atmosphere. The MT dynamics in the live cells can be visualized as the movement of the comet-like structure of EB3-AG. U2OS-EB3-AG cells plated on glass-base culture plates (EZVIEW plate, AGC Techno Glass, Japan) were treated with Compound (1) at the indicated concentration and the microtubule dynamics were monitored by time-lapse imaging using fluorescent microscope with 60-fold magnification oil- immersed objective lens (BZ-X710, KEYENCE, Japan). Higher magnification views of the boxed areas were shown in inlets. When treated with Compound (1) at 0.5 nM (IC50 value for antiproliferative activity in U20S-EB3-AG cells), the comet-like structures became hard to observe at around 60 minutes after the addition of the compound.

[3] = tested on: COLO-704 subcutaneous xenograft; experiment: COLO-704 xenograft model as monotherapy (FIG. 12); type: in vivo, nude mice
Description: A human ovarian cancer cell line COLO-704, which had been cultured in a RPMI-1640 containing 10% FBS, and penicillin-streptomycin, was adjusted to a concentration of 1×10^8 cells/mL with Hanks' Balanced Salt Solution to prepare a cell suspension. The cell suspension was inoculated in a volume of 100 μL into a subcutaneous part of a right flank of nude mice, 5 weeks of ages (CAnN.Cg- Foxnlnu/CrlCrlj, female, Charles River Laboratories Japan Inc.). Nine days after cell inoculation (Day 1), the shortest diameter and the longest diameter of a tumor in each mouse were measured by using an electronic digital caliper (Digimatic™ caliper, Mitutoyo Corporation), so as to calculate the volume of the tumor in accordance with the following calculation formulae: […]
On the basis of the volumes of tumors obtained on Day 1, the mice were grouped such that averages of the tumor volumes were substantially equal among the groups. The experiment was conducted on groups each consisting of six mice. The test compound was dissolved in DMSO and a solution was stored in the freezer before use. Immediately before the administration, the stock solution was diluted with saline. The test compound in saline was intravenously once-weekly administered at 20 μg/kg, 60 μg/kg, or 180 μg/kg for 2 weeks (on Day 1 and Day 8).

[4] = tested on: human bladder carcinoma cell line UM-UC-3; experiment: Bladder carcinoma cell line growth inhibition assay, UM-UC-3; type: cell-based; settings: UMUC3, 72 h, 3 days incubation, CellTiter-Glo 2.0
Description: In this assay, the growth inhibitory activity of Compound (1) in human bladder carcinoma cell lines RT4, RT112/84, and UM-UC-3 was measured. RT4 and RT112/84 cells were maintained in a RPMI-1640 (FUJIFILM Wako Pure Chemical Corporation, 189-02025) medium containing 10% fetal bovine serum (FBS: SIGMA Life Science, 172012-500ML), and penicillin and streptomycin (FUJIFILM Wako Pure Chemical Corporation, 168-23191) in a 5% CO2 incubator (37° C.). UM-UC-3 cells were maintained in an E-MEM (FUJIFILM Wako Pure Chemical Corporation, 051-07615) medium containing 10% FBS, 1 mM Sodium Pyruvate (FUJIFILM Wako Pure Chemical Corporation, 190-14881), and penicillin and streptomycin in a 5% CO2 incubator (37° C.). To each well of a 96 well plate (Coming, 3904), 90 μL of each cell suspension adjusted to a concentration of 5.55×10^3 cells/mL (RT4 or UM-UC-3) or 3.33×10^4 cells/mL (RT112/84) with the culture medium was added, and the cells were incubated overnight in a 5% CO2 incubator (37° C.). On the next day, 10 μL of Compound (1) in three-fold dilution series suspended in the culture medium was added to each well, and the resultant was incubated for 3 days in a 5% CO2incubator (37° C.). Then, cell viability was determined by CellTiter-Glo® 2.0 Assay (Promega Corporation, G9243) with ARVO-X4 Multimode Plate Reader (Perkin-Elmer, Wellesley, MA). […]

In the case of `C=C1C[C@@H]2CC[C@@]34C[C@H]5O[C@H]6[C@@H](O3)[C@H]3O[C@H](CC[C@@H]3O[C@H]6C5O4)CC(=O)O[C@@H]3[C@@H](C)[C@@H]4O[C@@H]5C[C@]6(C[C@@H]7O[C@]8(C[C@H](C)[C@@H]9O[C@H](CN)[C@H](O)C[C@@H]9O8)C[C@H](C)[C@@H]7O6)O[C@@H]5C[C@@H]4O[C@H]3C[C@H]3O[C@@H](CC[C@@H]1O2)C[C@@H](C)C3=C` (stereo in doubt) [Compound (1)], the “Tumor Regression (%)” value [1] is reported as 90%, the “effect on microtubule dynamics (EB3-AG comet-like structures)” value [2] is reported as “suppress the MT dynamics” and the antitumor effect ([3]; 60 μg/kg i.v. Day 1 and Day 8) is reported as “tumor growth delay”. The antitumor effect ([3]; 180 μg/kg i.v. Day 1 and Day 8) was “tumor regression”, the “xenograft tumors on Day 22” value ([3]; 180 μg/kg i.v. Day 1 and Day 8) was “completely eradicated the xenograft tumors in all mice” and the IC50 [4] was 0.512 nM.
